According to patent US20230348487A1, “2-AMINOPYRIMIDINE COMPOUND AND PHARMACEUTICAL COMPOSITION THEREOF AND APPLICATION THEREOF” (GUANGZHOU SALUSTIER BIOSCIENCES CO., LTD., priority 2021, published 2023):

How the values were obtained:
JAK1 = JAK1 (Homo sapiens (Human), UniProt P23458); experiment: Z′-Lyte kinase inhibitory activity test; format: biochemical; settings: ATP concentration Km
In short: (§1)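 Compounds (10 μM top final, 3-fold, 10 points, duplicate wells) were incubated with titrated kinase, ATP and 2 μM peptide at 30 °C for 1.5 h in HEPES pH 7.5/MgCl2/EGTA/Brij-35 buffer. Development followed for 1 h; phosphorylation ratio gave kinase inhibition, experiments repeated at least thrice.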

TYK2 = TYK2 (Homo sapiens (Human), UniProt P29597); experiment: Z′-Lyte kinase inhibitory activity test; format: biochemical; settings: ATP concentration Km
Sequence of TYK2 (P29597 whole entry): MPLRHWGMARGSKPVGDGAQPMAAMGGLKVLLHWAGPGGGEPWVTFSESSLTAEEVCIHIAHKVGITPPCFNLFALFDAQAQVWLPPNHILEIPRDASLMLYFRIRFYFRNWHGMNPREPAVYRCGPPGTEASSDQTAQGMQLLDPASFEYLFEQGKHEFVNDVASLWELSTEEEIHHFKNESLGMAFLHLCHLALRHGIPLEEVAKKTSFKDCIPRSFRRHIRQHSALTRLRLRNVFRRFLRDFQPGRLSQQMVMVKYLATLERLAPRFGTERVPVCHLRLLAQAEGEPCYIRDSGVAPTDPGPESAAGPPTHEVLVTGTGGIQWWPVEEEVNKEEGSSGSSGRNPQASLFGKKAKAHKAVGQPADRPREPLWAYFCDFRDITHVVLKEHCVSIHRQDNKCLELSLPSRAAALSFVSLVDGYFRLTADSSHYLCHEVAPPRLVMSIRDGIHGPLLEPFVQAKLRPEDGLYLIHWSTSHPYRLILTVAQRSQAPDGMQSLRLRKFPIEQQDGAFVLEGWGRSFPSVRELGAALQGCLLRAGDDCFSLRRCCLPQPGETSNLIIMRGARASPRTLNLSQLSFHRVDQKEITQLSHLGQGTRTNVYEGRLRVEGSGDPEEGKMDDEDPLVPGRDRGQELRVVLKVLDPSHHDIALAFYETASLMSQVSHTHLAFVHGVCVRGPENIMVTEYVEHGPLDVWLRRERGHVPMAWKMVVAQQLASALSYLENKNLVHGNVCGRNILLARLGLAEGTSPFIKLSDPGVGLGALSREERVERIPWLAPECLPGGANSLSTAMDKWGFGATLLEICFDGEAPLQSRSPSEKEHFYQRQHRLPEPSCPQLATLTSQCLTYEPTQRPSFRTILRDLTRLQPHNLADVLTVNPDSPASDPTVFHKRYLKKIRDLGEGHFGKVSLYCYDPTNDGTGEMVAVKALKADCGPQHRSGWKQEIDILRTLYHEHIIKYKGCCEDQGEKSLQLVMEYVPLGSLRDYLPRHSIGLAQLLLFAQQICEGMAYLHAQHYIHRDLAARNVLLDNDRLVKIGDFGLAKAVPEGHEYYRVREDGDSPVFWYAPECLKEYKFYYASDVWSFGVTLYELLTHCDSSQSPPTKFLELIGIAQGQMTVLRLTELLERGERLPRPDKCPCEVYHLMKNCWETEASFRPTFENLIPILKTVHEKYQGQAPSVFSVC
In short: as §1

[1] = tested on: phosphorylation of JAK3 and STAT5 in U937 cells; experiment: Wash out experiment in U937 cells; format: cell-based, human; settings: 200 nM 10 hours then removed
Protocol: Cell line: human acute myeloid leukemia cell line U937
After 200 nM test compound LS6-45 was co-incubated with U937 cells for 10 hours, the supernatant was discarded by centrifugation. The cells were collected and washed with PBS to remove residual compounds. After adding fresh culture medium, the cells continued to be cultured in a 37° C. incubator. Cells were collected at 0, 0.5, 1, 2, 4, 8, 12, and 16 hours, and protein was extracted for Western blot analysis.

Sequence of JAK1 (P23458 whole entry): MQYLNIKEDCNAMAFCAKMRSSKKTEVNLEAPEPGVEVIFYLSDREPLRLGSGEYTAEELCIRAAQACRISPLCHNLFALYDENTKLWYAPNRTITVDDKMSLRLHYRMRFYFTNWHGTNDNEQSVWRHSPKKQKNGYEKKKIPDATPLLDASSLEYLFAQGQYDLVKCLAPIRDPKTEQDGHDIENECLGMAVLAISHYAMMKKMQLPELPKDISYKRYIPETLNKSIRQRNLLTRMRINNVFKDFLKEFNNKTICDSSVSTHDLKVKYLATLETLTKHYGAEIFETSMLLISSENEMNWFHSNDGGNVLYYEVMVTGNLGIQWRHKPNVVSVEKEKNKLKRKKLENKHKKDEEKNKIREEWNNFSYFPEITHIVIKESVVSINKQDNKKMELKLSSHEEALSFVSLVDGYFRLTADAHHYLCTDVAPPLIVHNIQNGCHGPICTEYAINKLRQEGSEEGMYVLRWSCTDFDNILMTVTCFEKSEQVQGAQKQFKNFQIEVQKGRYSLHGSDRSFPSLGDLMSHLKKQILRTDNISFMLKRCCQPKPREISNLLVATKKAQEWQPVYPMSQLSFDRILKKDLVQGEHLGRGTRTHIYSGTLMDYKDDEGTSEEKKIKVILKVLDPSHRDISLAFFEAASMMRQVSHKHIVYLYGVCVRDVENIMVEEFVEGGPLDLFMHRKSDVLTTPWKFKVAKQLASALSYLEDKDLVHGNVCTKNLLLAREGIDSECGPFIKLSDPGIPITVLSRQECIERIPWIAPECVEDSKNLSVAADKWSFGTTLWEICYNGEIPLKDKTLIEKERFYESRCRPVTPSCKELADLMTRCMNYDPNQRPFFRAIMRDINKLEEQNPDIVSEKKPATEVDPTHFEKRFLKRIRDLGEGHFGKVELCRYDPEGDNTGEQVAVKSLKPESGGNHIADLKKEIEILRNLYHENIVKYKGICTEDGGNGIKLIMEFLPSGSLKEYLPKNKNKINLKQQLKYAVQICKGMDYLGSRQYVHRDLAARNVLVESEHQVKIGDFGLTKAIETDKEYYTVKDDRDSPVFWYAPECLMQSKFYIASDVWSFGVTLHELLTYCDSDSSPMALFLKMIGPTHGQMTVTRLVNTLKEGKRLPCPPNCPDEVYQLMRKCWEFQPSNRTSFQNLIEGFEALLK

C=CC(=O)Nc1cc(Nc2ncc(Cl)c(O[C@@H]3CO[C@H]4[C@@H]3OC[C@H]4OC)n2)ccc1N(C)CCN(C)C [LS 6-45]
IC50 (JAK1): 13 µM
IC50 (TYK2): 1.08 µM
phosphorylation levels of JAK3 and STAT5 after wash out ([1]; between 8-12 hours): slowly recovered
phosphorylation levels of JAK3 and STAT5 after wash out ([1]; within 8 hours): continuously inhibited
